In DBAASP one finds MIC data, which are given here for four compounds.

Structures are written as SMILES. ≈ marks a conversion by molar mass, not a printed value. Where “and” joins values, the source holds several entries; their conditions need not be identical. Identical values can stand only once.

Test systems include Proteus mirabilis; Streptococcus pyogenes; Escherichia coli ML-35p; Escherichia coli BAS 849; Enterococcus faecium; Klebsiella pneumoniae.
What all share (experiment): ≥ marks a high value that may be exact or a test limit, other limits are often not marked, values filed in µg/mL are converted to µM
Assay [1] relates to Stenotrophomonas maltophilia ATCC 13637.
Assay [2] relates to Staphylococcus epidermidis.
The subject of assay [3] is Escherichia coli ATCC 25922.
The subject of assay [4] is Candida albicans ATCC 90112.
The subject of assay [5] is Bacillus subtilis ATCC 6633.
The test system of assay [6] is Staphylococcus aureus ATCC 25923.
The subject of assay [7] is Micrococcus luteus ATCC 10240.
The test system of assay [8] is Pseudomonas aeruginosa ATCC 27853.
Assay [9] has as its system Staphylococcus aureus T4/6.
For assay [10], the system named is Klebsiella pneumoniae ATCC 700603.
For assay [11], the system named is Staphylococcus aureus 127/08.
Assay [12] has as its system Staphylococcus aureus 274/08.
The test system of assay [13] is Staphylococcus aureus 145/08.
Assay [14] deals with Staphylococcus aureus V4180.
Assay [15] concerns Acinetobacter baumannii I NM8.
The subject of assay [16] is Candida albicans ATCC 90028.
For assay [17], the system named is Staphylococcus aureus S908.
Assay [18] concerns Escherichia coli ATCC 25726.
Assay [19] deals with Staphylococcus aureus ΔmprFpRBsyn.
Assay [20] concerns Staphylococcus aureus ΔmprF.
The subject of assay [21] is Salmonella enterica serovar typhimurium MS7953s.
For assay [22], the system named is Candida albicans ATCC 10231.
Assay [23] deals with Enterococcus faecalis ATCC 29212.
For assay [24], the system named is Staphylococcus aureus 930918-3.
In assay [25] the test system is Pseudomonas aeruginosa SBI-N.
Assay [26] deals with Enterococcus faecalis CDC 21.
Assay [27] concerns Staphylococcus aureus 30371.
Assay [28] relates to Salmonella enterica subsp. enterica serovar Typhimurium ATCC 14028s.
For assay [29], the system named is Pseudomonas aeruginosa MR3007.
Assay [30] deals with Pseudomonas aeruginosa MR2123.
Assay [31] has as its system Listeria monocytogenes EGD.
Assay [32] relates to Staphylococcus aureus 28841.
Assay [33] concerns Enterococcus faecium 94-132.

Regarding `CC[C@H](C)[C@H](NC(=O)[C@H](CC(=O)O)NC(=O)[C@@H](N)Cc1ccccc1)C(=O)N[C@@H](CCSC)C(=O)NCC(=O)N[C@@H](CC(C)C)C(=O)N[C@H](C(=O)N[C@@H](CCCCN)C(=O)N[C@@H](CCCCN)C(=O)N[C@H](C(=O)N[C@@H](C)C(=O)NCC(=O)N[C@@H](C)C(=O)N[C@@H](CC(C)C)C(N)=O)C(C)C)[C@@H](C)CC` [FDIMGLIKKVAGAL], the MIC in assay [1] was 30 µM (≈ 44.2 µg/mL); in [2], 30 µM (≈ 44.2 µg/mL); in assay [3], 30 µM (≈ 44.2 µg/mL); against Proteus mirabilis it was at least 60 µM; in assay [4], 7.5 µM (≈ 11.1 µg/mL); in assay [5] it was 30 µM (≈ 44.2 µg/mL). Moreover, the MIC against Streptococcus pyogenes is 30 µM (≈ 44.2 µg/mL); in [6], 30 µM (≈ 44.2 µg/mL); in [7], 30 µM (≈ 44.2 µg/mL); in assay [8] it was above 30 µM.
For the compound `CC(C)C[C@H](NC(=O)CNC(=O)[C@H](CC(C)C)NC(=O)[C@H](CCCCN)NC(=O)[C@H](CC(C)C)NC(=O)[C@H](CC(C)C)NC(=O)[C@@H]1CCCN1C(=O)CNC(=O)[C@H](CC(C)C)NC(=O)[C@H](Cc1ccccc1)NC(=O)CN)C(=O)N[C@@H](CCCCN)C(=O)NCC(=O)N[C@@H](C)C(=O)N[C@@H](C)C(=O)N[C@@H](CCCCN)C(=O)N[C@@H](CC(C)C)C(=O)N[C@@H](CC(C)C)C(=O)N1CCC[C@H]1C(=O)N[C@@H](CCC(N)=O)C(=O)N[C@@H](CC(C)C)C(=O)N[C@@H](CC(C)C)C(=O)N1CCC[C@H]1C(=O)N[C@@H](CO)C(=O)N[C@@H](CCCN=C(N)N)C(=O)N[C@@H](CCC(N)=O)C(=O)N[C@@H](CCC(N)=O)C(=O)O` [GFLGPLLKLGLKGAAKLLPQLLPSRQQ], the MIC in assay [9] stood at 2.5 µM (≈ 7.14 µg/mL); in [10], 50 µM (≈ 143 µg/mL); in assay [11] it was 2.5 µM (≈ 7.14 µg/mL); in [12], 2.5 µM (≈ 7.14 µg/mL); in assay [13], 2.5 µM (≈ 7.14 µg/mL); in assay [14] it was 2.5 µM (≈ 7.14 µg/mL). Moreover, the MIC is 6 µM (≈ 17.1 µg/mL) in [15]; 2.5 µM and 6 µM in [6]; 12.5 µM (≈ 35.7 µg/mL) in assay [16]; 2.5 µM (≈ 7.14 µg/mL) in [17]; at least 50 µM in assay [18]; 25 µM (≈ 71.4 µg/mL) in assay [8].
With `CC(C)C[C@H](NC(=O)[C@@H](NC(=O)CNC(=O)[C@H](CCCN=C(N)N)NC(=O)[C@@H](NC(=O)[C@H](CCCN=C(N)N)NC(=O)[C@@H](NC(=O)[C@H](Cc1ccc(O)cc1)NC(=O)[C@H](C)NC(=O)[C@H](Cc1ccc(O)cc1)NC(=O)[C@@H](NC(=O)[C@H](CO)NC(=O)[C@H](Cc1c[nH]c2ccccc12)NC(=O)[C@@H](N)CCCN=C(N)N)C(C)C)C(C)C)C(C)C)C(C)C)C(=O)N[C@H](C(=O)N[C@@H](CCCN=C(N)N)C(=O)N[C@@H](Cc1ccc(O)cc1)C(=O)N[C@@H](CCCN=C(N)N)C(=O)N[C@@H](CCCN=C(N)N)C(=O)N[C@@H](CO)C(=O)N[C@@H](Cc1c[nH]c2ccccc12)C(=O)O)C(C)C` [RWSVYAYVRVRGVLVRYRRSW], the MIC in [19] is 2.93 µM and 5.86 µM; in assay [20], 2.93 µM (≈ 8 µg/mL).
For the compound `CC[C@H](C)[C@H](N=C(O)[C@H](CCCCN)N=C(O)CN=C(O)[C@H](CC(C)C)N=C(O)[C@H](Cc1ccccc1)N=C(O)[C@H](CCC(=N)O)N=C(O)[C@H](Cc1ccccc1)N=C(O)[C@@H](N)C(C)C)C(O)=N[C@H](C(O)=N[C@@H](Cc1cnc[nH]1)C(O)=N[C@@H](Cc1cnc[nH]1)C(O)=N[C@H](C(O)=NCC(O)=N[C@@H](CC(=N)O)C(O)=N[C@@H](Cc1ccccc1)C(O)=N[C@H](C(O)=N[C@@H](Cc1cnc[nH]1)C(O)=NCC(O)=N[C@@H](Cc1ccccc1)C(O)=N[C@@H](CO)C(O)=N[C@@H](Cc1cnc[nH]1)C(O)=N[C@H](C(O)=N[C@@H](Cc1ccccc1)C(=N)O)C(C)C)C(C)C)C(C)C)[C@@H](C)CC` [VFQFLGKIIHHVGNFVHGFSHVF], the MIC is 0.15 µM (≈ 0.4 µg/mL) in [21]; 48 µM and > 24 µM in [22]; 96 µM (≈ 256 µg/mL) in assay [23]; 96 µM (≈ 256 µg/mL) in assay [3]; 0.637 µM (≈ 1.7 µg/mL) in [24]; 0.375 µM (≈ 1 µg/mL) in assay [25]. The MIC against Escherichia coli ML-35p was found to be 0.562 µM (≈ 1.5 µg/mL); in assay [26] it was 0.225 µM (≈ 0.6 µg/mL); in assay [27] it was 1.01 µM (≈ 2.7 µg/mL); against Escherichia coli BAS 849 it was 0.562 µM (≈ 1.5 µg/mL); in the assay on Enterococcus faecium, 0.113 µM (≈ 0.3 µg/mL); in [28] it was 0.6 µM (≈ 1.6 µg/mL). Besides, the MIC was 0.412 µM (≈ 1.1 µg/mL) in [29]; 0.3 µM (≈ 0.8 µg/mL) in [30]; 0.45 µM (≈ 1.2 µg/mL) in the assay on Klebsiella pneumoniae; 0.15 µM (≈ 0.4 µg/mL) in assay [31]; 0.712 µM (≈ 1.9 µg/mL) in assay [32]; 0.075 µM (≈ 0.2 µg/mL) in assay [33].
